Calls of active or inactive are those of the source. No cut-off for these calls is given here.
Legend:
[1] = Half life in 12 hr fasted SPF Sprague-Dawley rat at 5 mg/kg, iv upon 2 hrs fasting post-administration measured upto 24 hrs; format: ADME, organism-based; conditions: in vivo
[2] = Cmax in 12 hr fasted SPF Sprague-Dawley rat at 5 mg/kg, iv upon 2 hrs fasting post-administration measured upto 24 hrs; format: ADME, organism-based; design: dose 5 mg/kg, time < 24 hrs, route iv; conditions: in vivo
[3] = Cmax in 12 hr fasted SPF Sprague-Dawley rat at 15 mg/kg, po upon 2 hrs fasting post-administration measured upto 24 hrs; format: ADME, organism-based; design: time < 24 hrs, dose 15 mg/kg, route po; conditions: in vivo
[4] = Clearance in 12 hr fasted SPF Sprague-Dawley rat at 5 mg/kg, iv upon 2 hrs fasting post-administration measured upto 24 hrs; format: ADME, organism-based; conditions: in vivo
[5] = molecular target: Tyrosine-protein kinase JAK2 (Homo sapiens, UniProt O60674); assay: Inhibition of human JAK2 at 0.5 uM relative to control
Chain of Tyrosine-protein kinase JAK2 (O60674 whole entry): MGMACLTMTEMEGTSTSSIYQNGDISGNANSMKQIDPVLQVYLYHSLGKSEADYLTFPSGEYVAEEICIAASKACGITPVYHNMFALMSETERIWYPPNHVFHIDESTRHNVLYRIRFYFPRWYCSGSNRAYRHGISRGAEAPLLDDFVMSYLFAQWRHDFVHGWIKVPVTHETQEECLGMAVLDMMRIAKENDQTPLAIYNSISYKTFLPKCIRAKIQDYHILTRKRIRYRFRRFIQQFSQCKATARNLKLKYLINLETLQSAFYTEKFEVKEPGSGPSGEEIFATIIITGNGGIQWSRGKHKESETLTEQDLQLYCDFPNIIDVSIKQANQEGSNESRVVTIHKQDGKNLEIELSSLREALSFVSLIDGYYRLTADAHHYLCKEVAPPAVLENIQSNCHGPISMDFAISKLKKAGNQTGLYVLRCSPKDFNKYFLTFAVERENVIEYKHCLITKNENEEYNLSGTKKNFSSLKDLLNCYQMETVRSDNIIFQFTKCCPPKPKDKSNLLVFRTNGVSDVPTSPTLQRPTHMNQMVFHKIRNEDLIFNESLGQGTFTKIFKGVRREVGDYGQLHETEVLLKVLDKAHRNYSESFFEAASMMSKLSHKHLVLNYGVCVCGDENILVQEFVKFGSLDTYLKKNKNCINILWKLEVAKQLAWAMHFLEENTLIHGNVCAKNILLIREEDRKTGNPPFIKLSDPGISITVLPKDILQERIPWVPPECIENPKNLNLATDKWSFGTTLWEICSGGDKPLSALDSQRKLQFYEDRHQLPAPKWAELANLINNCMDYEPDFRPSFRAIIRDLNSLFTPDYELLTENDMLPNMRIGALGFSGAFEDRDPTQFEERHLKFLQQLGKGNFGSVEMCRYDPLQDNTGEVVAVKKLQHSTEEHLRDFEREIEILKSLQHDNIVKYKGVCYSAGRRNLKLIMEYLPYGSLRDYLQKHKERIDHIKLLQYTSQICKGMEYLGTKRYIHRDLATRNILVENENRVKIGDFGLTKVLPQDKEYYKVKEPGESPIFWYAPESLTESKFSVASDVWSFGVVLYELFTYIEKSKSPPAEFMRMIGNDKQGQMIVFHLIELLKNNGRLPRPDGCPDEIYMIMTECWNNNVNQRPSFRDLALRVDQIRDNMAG

[6] = molecular target: T1, Tyrosine-protein kinase JAK3 (Homo sapiens, UniProt P52333); assay: Inhibition of human JAK3
T1 sequence (P52333 whole entry): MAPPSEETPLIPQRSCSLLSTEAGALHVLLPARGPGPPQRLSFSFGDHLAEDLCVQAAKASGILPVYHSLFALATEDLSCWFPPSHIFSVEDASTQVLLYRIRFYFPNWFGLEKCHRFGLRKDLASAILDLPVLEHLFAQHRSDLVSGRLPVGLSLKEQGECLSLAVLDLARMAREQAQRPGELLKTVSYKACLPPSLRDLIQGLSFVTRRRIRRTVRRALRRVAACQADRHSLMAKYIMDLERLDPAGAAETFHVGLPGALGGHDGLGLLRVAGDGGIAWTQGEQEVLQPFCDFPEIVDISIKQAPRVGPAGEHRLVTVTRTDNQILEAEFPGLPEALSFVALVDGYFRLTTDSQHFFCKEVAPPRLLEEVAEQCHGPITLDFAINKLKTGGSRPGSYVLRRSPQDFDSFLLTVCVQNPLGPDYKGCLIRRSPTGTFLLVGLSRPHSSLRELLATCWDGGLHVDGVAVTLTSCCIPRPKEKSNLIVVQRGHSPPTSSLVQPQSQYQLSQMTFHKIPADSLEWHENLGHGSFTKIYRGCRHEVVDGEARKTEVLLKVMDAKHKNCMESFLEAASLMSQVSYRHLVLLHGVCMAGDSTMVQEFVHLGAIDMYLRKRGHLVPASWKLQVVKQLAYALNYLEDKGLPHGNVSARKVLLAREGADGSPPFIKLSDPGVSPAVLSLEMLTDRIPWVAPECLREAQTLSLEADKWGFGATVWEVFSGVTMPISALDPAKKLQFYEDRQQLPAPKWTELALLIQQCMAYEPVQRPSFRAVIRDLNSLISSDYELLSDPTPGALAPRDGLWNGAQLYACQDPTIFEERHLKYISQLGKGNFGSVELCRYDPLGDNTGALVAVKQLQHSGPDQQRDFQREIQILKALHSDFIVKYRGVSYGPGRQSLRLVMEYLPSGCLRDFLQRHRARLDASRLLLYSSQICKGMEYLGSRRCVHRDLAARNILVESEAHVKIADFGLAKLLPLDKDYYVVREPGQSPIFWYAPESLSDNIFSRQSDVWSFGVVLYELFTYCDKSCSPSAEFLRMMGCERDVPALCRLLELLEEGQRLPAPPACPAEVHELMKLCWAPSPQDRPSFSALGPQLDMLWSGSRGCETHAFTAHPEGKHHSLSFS

[7] = molecular target: Tyrosine-protein kinase Blk (Homo sapiens) (UniProt P51451); assay: Inhibition of BLK (unknown origin) at 0.5 uM relative to control
Chain of Tyrosine-protein kinase Blk (Homo sapiens) (P51451 2-505 limits assumed): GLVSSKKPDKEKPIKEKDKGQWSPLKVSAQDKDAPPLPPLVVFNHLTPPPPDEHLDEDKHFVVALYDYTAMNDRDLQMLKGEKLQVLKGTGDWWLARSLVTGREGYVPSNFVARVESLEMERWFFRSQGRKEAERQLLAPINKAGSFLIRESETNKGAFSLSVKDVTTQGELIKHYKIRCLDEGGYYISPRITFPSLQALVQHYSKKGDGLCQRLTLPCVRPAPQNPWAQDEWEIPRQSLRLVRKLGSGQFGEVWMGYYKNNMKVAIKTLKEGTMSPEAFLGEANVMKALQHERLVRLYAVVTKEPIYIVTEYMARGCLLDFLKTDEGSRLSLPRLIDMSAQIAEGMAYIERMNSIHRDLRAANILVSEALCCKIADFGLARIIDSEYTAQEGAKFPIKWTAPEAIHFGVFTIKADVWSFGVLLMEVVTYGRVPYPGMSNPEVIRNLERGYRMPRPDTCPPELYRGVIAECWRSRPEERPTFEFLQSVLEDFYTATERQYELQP

[8] = molecular target: Tyrosine-protein kinase ITK/TSK (Homo sapiens) (UniProt Q08881); assay: Inhibition of ITK (unknown origin) at 0.5 uM relative to control
[9] = molecular target: Signal transducer and activator of transcription 3 (Homo sapiens) (UniProt P40763); assay: Inhibition of STAT3 activation in human U-937 cells assessed as decrease in P-STAT3 incubated for 0 to 24 hrs by Western blot analysis; format: cell-based; conditions: dose 200.0 µM, time 0-24 hrs, DDE = dose-dependent effect
Chain of Signal transducer and activator of transcription 3 (Homo sapiens) (P40763 whole entry): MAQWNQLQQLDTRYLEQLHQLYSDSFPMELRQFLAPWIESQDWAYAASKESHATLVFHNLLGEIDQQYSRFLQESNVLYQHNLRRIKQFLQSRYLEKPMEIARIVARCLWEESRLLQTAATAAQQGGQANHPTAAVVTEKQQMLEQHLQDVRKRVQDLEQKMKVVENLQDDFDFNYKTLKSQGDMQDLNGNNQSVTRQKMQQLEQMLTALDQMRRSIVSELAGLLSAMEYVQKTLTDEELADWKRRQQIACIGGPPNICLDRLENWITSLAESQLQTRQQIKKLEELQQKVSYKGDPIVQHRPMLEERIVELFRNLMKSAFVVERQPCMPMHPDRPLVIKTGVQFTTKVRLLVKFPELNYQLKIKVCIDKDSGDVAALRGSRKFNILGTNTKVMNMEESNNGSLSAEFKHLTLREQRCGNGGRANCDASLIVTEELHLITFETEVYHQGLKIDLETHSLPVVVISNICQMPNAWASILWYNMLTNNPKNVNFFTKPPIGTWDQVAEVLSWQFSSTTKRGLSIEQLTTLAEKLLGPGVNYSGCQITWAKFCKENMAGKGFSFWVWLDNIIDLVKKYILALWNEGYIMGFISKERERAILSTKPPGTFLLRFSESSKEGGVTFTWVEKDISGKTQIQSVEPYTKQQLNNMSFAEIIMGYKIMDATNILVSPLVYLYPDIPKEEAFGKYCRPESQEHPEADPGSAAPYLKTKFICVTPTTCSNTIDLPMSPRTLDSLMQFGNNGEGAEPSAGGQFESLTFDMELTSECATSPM

[10] = molecular target: T2, Tyrosine-protein kinase JAK3 (Homo sapiens) (UniProt P52333); assay: Irreversible inhibition of JAK3 in human U-937 cells assessed as decrease in P-JAK3 phosphorylation at 200 uM pretreated for 8 hrs followed by compound washout by immunoblotting analysis; format: cell-based
T2 sequence (whole entry): T1 sequence (P52333 whole entry)

U-937 [11] = assay: Induction of cell cycle arrest in human U-937 cells assessed as accumulation at G0/G1 phase at 300 nM measured after 24 hrs by propidium iodide staining based flow cytometric analysis (reference value: 62.95%); format: functional
U-937 [12] = assay: Induction of cell cycle arrest in human U-937 cells assessed as accumulation at S phase at 11 nM measured after 24 hrs by propidium iodide staining based flow cytometric analysis (reference value: 15.35%); format: functional
U-937 [13] = assay: Induction of cell cycle arrest in human U-937 cells assessed as accumulation at G2/M phase at 11 nM measured after 24 hrs by propidium iodide staining based flow cytometric analysis (reference value: 21.41%); format: functional
U-937 [14] = assay: Induction of cell cycle arrest in human U-937 cells assessed as downregulation of CDK4 at 0 to 300 nM measured after 24 hrs by western blot analysis; format: functional, cell-based; conditions: dose 0-300 nM
U-937 [15] = assay: Induction of cell cycle arrest in human U-937 cells assessed as downregulation of Cyclic B1 at 0 to 300 nM measured after 24 hrs by western blot analysis; format: functional, cell-based; conditions: dose 0-300 nM
U-937 [16] = assay: Antitumor activity against human U-937 cells xenografted in po dosed CB17-SCID mouse assessed as tumor growth inhibition twice daily for 10 days; format: functional, organism-based; conditions: time 10.0 day, DDE = dose-dependent effect
[17] = Toxicity in CB17-SCID mouse xenografted with human U-937 cells assessed as body weight loss at 12.5 to 50 mg/kg, po twice daily for 10 days; format: organism-based; conditions: in vivo, 240 h, dose 12.5-50 mg/kg, time 10 day
[18] = molecular target: T2, Tyrosine-protein kinase JAK3 (Homo sapiens); assay: Inhibition of human JAK3 at 0.5 uM assessed as competition rate relative to control
[19] = molecular target: NUAK family SNF1-like kinase 1 (Homo sapiens) (UniProt O60285); assay: Inhibition of human ARK5 at 0.5 uM assessed as competition rate relative to control
Chain of NUAK family SNF1-like kinase 1 (Homo sapiens) (O60285 whole entry): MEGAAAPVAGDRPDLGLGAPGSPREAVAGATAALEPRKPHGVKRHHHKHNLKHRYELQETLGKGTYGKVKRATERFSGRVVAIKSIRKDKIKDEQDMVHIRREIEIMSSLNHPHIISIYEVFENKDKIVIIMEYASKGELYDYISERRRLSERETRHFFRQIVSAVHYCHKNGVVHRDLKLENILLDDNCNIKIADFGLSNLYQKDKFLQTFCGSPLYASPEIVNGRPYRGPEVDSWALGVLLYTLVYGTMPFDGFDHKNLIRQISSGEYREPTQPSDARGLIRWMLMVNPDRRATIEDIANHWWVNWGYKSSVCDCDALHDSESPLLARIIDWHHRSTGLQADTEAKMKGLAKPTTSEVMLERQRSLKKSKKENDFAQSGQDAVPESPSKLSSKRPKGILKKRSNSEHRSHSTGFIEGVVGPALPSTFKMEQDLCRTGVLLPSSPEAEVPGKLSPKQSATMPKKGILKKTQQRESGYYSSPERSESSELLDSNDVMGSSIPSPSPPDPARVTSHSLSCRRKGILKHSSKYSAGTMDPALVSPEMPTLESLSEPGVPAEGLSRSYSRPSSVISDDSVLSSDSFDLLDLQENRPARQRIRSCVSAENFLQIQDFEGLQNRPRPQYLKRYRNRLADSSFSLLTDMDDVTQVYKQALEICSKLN

[20] = molecular target: Receptor-type tyrosine-protein kinase FLT3 (Homo sapiens) (UniProt P36888); assay: Inhibition of human FLT3 at 0.5 uM assessed as competition rate relative to control
Chain of Receptor-type tyrosine-protein kinase FLT3 (Homo sapiens) (P36888 whole entry): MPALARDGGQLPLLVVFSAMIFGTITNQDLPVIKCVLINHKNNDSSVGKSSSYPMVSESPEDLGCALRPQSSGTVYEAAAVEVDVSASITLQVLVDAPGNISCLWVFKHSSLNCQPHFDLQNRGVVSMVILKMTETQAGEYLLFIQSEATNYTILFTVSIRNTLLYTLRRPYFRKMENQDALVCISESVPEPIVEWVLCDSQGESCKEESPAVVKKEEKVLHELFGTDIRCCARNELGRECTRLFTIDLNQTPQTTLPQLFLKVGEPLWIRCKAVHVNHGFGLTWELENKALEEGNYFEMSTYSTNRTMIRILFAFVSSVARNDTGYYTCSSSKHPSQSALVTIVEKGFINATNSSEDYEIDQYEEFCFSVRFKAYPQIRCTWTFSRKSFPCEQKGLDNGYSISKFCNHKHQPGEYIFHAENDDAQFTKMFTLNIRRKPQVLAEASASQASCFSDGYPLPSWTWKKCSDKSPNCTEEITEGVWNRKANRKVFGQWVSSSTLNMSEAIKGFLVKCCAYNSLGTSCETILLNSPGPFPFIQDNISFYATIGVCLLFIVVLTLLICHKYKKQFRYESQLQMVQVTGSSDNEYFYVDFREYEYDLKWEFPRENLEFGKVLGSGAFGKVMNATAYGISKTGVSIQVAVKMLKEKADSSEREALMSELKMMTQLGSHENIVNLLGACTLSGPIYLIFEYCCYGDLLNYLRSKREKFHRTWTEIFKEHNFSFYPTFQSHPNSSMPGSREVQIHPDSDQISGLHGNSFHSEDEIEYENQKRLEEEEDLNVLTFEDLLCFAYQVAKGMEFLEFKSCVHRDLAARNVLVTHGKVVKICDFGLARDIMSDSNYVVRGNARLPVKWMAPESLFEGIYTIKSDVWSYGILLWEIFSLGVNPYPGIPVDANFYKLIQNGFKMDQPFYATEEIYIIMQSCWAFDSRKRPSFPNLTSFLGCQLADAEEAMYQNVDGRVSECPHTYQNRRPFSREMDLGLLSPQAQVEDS

[21] = molecular target: Cyclin-dependent kinase 16 (Homo sapiens) (UniProt Q00536); assay: Inhibition of human CDK16 at 0.5 uM assessed as competition rate relative to control
Chain of Cyclin-dependent kinase 16 (Homo sapiens) (Q00536 whole entry): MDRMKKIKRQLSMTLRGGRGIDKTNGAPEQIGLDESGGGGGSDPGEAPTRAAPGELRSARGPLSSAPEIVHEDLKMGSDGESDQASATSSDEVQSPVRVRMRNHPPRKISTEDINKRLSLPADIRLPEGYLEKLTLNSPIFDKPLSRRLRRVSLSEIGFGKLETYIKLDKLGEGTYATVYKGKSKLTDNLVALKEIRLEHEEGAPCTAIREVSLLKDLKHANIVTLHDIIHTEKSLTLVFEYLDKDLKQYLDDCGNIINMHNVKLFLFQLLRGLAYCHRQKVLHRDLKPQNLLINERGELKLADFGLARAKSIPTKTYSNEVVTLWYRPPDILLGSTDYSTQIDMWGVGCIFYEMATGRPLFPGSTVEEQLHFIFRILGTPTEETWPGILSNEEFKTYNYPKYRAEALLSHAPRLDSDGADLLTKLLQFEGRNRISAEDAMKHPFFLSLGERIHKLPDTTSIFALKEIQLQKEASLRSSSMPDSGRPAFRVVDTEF

[22] = molecular target: Receptor tyrosine-protein kinase erbB-2 (Homo sapiens) (UniProt P04626); assay: Inhibition of HER2 (unknown origin) at 0.5 uM assessed as competition rate relative to control
[23] = molecular target: Epidermal growth factor receptor (Homo sapiens) (UniProt P00533); assay: Inhibition of EGFR (unknown origin) at 0.5 uM relative to control
BaF3 = assay: cells; conditions: Mus musculus, BaF3, 72 h

half-life [1]: 54.6 min | Cmax [2]: 911 ng/mL | Cmax [3]: 238 ng/mL | CL [4]: 155.22% | inhibition [5]: 98% | IC50 [6]: 0.008 µM | inhibition [7]: 60% | inhibition [8]: 92% | inhibition [9]: Dde | inhibition [10]: Active | inhibition [18]: 90% | inhibition [19]: 70% | inhibition [20]: 70% | inhibition [21]: 70% | inhibition [22]: 40% | inhibition [23]: 94% | IC50 (BaF3): 0.0229 µM
Compound: C=CC(=O)Nc1cc(Nc2ncc(Cl)c(O[C@@H]3CO[C@H]4[C@@H]3OC[C@H]4OC)n2)ccc1N(C)CCN(C)C
Activity (U-937 [11]): 76.88% | Activity (U-937 [12]): 15.18% | Activity (U-937 [13]): 21.98% | Activity (U-937 [14]): Active | Activity (U-937 [15]): Active | Activity (U-937 [16]): Dde | Activity [17]: Non-Toxic
